From ChEMBL document CHEMBL5260813, “An overview on the recent developments of 1,2,4-triazine derivatives as anticancer compounds” (Eur J Med Chem, 2017)
Converted amounts (≈) assume the structure as drawn.

How the values were obtained:
[1] = test system: A549; test: Antiproliferative activity against human A549 cells assessed as inhibition of cell growth under hypoxia condition; type: functional, cell-based
[2] = test system: KB; test: Antiproliferative activity against human KB cells assessed as inhibition of cell growth under hypoxia condition; type: functional, cell-based
[3] = test system: K562; test: Induction of apoptosis in human K562 cells assessed as increase in apoptotic cells under normoxia condition relative to control; type: functional
[4] = test system: SMMC-7721; test: Antiproliferative activity against human SMMC-7721 cells assessed as inhibition of cell growth incubated for 72 hrs by MTT assay; type: functional, cell-based; settings: SMMC-7721, 72 h
[5] = test system: A549; test: Antiproliferative activity against human A549 cells assessed as inhibition of cell growth incubated for 72 hrs by MTT assay; type: functional, cell-based; settings: A549, 72 h
[6] = test system: K562; test: Induction of apoptosis in human K562 cells assessed as increase in apoptotic cells under hypoxia condition relative to control; type: functional
[7] = test system: OCI-Ly10; test: Antiproliferative activity against human OCI-Ly10 cells assessed as inhibition of cell growth incubated for 3 days by WST-1 assay; type: functional, cell-based; settings: OCI-Ly10, 72 h
[8] = test system: TMD8; test: Antiproliferative activity against human TMD8 cells assessed as inhibition of cell growth incubated for 3 days by WST-1 assay; type: functional, cell-based; settings: TMD8, 72 h
[9] = biological target: T1, Tyrosine-protein kinase SYK (Homo sapiens, UniProt P43405); test: Inhibition of human SYK using 5-Fluo-Ahx-GAPDYENLQELNKK-Amid as substrate in presence of ATP by microfluidic mobility shift assay
[10] = biological target: T1, Tyrosine-protein kinase SYK; test: Inhibition of SYK in human Ramos cells assessed as reduction in anti IgM-induced phosphorylation of BLNK by flow cytometry assay; type: cell-based
[11] = Antiproliferative activity against human HBL1 cells assessed as inhibition of cell growth incubated for 3 days by WST-1 assay; type: functional, cell-based; settings: HBL1, 72 h
[12] = test system: HCT-116; test: Antiproliferative activity against human HCT-116 cells assessed as inhibition of cell growth by MTT assay; type: functional, cell-based
[13] = test system: HepG2; test: Antiproliferative activity against human HepG2 cells assessed as cell growth inhibition by MTT assay; type: functional, cell-based
[14] = test system: MCF7; test: Antiproliferative activity against human MCF7 cells assessed as inhibition of cell growth by MTT assay; type: functional, cell-based
[15] = biological target: T2, Interleukin-1 receptor-associated kinase 4 (Homo sapiens, UniProt Q9NWZ3); test: Inhibition of human GST-tagged IRAK4 incubated for 30 mins in presence of ATP by fluorescent polarization assay
T2 sequence (Q9NWZ3 whole entry): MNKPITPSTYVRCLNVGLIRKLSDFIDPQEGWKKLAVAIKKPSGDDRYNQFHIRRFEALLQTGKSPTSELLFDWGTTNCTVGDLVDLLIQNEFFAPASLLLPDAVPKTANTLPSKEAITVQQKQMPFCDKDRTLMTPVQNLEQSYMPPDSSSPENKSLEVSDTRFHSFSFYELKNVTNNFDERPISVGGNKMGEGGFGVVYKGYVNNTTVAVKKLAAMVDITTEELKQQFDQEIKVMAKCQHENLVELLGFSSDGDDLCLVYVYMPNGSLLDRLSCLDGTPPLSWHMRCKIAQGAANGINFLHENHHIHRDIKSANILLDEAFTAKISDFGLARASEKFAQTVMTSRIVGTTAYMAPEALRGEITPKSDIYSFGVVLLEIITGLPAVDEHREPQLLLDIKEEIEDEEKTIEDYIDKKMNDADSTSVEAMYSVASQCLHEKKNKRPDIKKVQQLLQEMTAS

[16] = test system: MDA-MB-468; test: Antiproliferative activity against human MDA-MB-468 cells assessed as reduction in cell viability; type: functional
[17] = biological target: Glutaminase kidney isoform, mitochondrial (Homo sapiens, UniProt O94925); test: Inhibition of GLS in human PC-3 cells using glutamine as substrate by amplex red staining-based horseradish peroxidase/glutamate oxidase coupled assay; type: cell-based
[18] = test system: MCF7; test: Antiproliferative activity against human MCF7 cells assessed as inhibition of cell growth at 100 uM relative to control; type: functional
[19] = test system: SF-268; test: Antiproliferative activity against human SF-268 cells assessed as inhibition of cell growth at 100 uM relative to control; type: functional
[20] = test system: PC-3; test: Antiproliferative activity against human PC-3 cells assessed as inhibition of cell growth measured after 48 hrs by MTT assay; type: functional, cell-based; settings: PC-3, 48 h
[21] = test system: CAKI-1; test: Antiproliferative activity against human CAKI-1 cells assessed as inhibition of cell growth; type: functional, cell-based
[22] = test system: NCI-H460; test: Antiproliferative activity against human NCI-H460 cells assessed as inhibition of cell growth measured after 48 hrs by MTT assay; type: functional, cell-based; settings: NCI-H460, 48 h
[23] = test system: MCF7; test: Antiproliferative activity against human MCF7 cells assessed as inhibition of cell growth measured after 48 hrs by MTT assay; type: functional, cell-based; settings: MCF7, 48 h
[24] = test system: OVCAR-4; test: Antiproliferative activity against human OVCAR-4 cells assessed as cell growth inhibition; type: functional, cell-based
[25] = biological target: Fibroblast growth factor receptor (Homo sapiens, UniProt P22607+P11362+P22455+P21802); test: Inhibition of FGFR (unknown origin); type: protein assay
[26] = test system: NCI-H460; test: Antiproliferative activity against human NCI-H460 cells assessed as inhibition of cell growth; type: functional, cell-based
[27] = test system: SF-268; test: Antiproliferative activity against human SF-268 cells assessed as inhibition of cell growth; type: functional, cell-based
[28] = test system: MCF7; test: Antiproliferative activity against human MCF7 cells assessed as inhibition of cell growth; type: functional, cell-based
[29] = test system: MCF7; test: Cytotoxicity against human MCF7 cells assessed as inhibition of cell growth incubated for 72 hrs by MTT assay; type: functional, cell-based; settings: MCF7, 72 h
[30] = biological target: Cyclin-dependent kinase 2/cyclin E1 (Homo sapiens, UniProt P24941); test: Inhibition of CDK2/cyclin E1 (unknown origin) expressed in Sf9 cells
[31] = Cytotoxicity against human CEM cells assessed as inhibition of cell growth incubated for 72 hrs by MTT assay; type: toxicity, cell-based; settings: CEM (CCRF-CEM) cells, pooled result: one value given for 5 cell lines, strains, targets or settings
[32] = test system: Panel NCI-60 (60 carcinoma cell lines); test: Antiproliferative activity against human Panel NCI-60 (60 carcinoma cell lines) cells assessed as inhibition of cell growth; type: functional, cell-based

Sequence of Glutaminase kidney isoform, mitochondrial (O94925 whole entry, canonical isoform): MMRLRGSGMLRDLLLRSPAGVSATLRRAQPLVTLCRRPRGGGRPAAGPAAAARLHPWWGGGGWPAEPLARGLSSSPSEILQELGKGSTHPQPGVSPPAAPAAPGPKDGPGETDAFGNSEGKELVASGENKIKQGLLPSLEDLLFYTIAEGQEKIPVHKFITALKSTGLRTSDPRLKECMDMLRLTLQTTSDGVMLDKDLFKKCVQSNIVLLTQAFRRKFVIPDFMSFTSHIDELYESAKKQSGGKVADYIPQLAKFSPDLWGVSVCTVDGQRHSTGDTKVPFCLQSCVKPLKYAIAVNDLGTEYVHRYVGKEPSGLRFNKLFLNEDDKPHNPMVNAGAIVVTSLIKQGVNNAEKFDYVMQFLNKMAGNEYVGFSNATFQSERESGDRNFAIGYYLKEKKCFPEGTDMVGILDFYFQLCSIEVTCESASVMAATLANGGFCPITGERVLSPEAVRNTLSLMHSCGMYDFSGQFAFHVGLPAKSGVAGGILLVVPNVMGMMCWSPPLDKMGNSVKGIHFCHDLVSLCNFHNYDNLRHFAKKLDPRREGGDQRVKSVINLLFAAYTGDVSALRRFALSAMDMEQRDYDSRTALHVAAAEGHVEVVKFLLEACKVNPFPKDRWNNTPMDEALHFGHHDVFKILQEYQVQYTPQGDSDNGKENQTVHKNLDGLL

`COCNc1n[n+]([O-])c2ccccc2[n+]1[O-]` gave an IC50 [1] of 2700 nM and an IC50 [2] of 2700 nM.

For `CCOCNc1n[n+]([O-])c2ccccc2[n+]1[O-]`, the Activity [3] was 9.5%, the IC50 [4] was 3120 nM and the IC50 [5] was 3120 nM. For the same molecule, the Activity [6] was 32.11% and the IC50 [2] was 4090 nM.

Work on `NC(=O)c1nnc(N[C@@H]2CCCC[C@@H]2N)nc1Nc1cccc2cc[nH]c12` yielded an IC50 [7] of 25 nM, an IC50 [8] of 281 nM and an IC50 [9] of 0.8 nM. It also gave an IC50 [10] of 14 nM and an IC50 [11] of 105 nM.

Work on `O=c1[nH]n2c(=O)c(/C=C/c3cccs3)nnc2s1` yielded an IC50 [12] of 8.34 µg/mL (≈ 30 µM), an IC50 [13] of 8.34 µg/mL (≈ 30 µM) and an IC50 [14] of 8.34 µg/mL (≈ 30 µM).

In the case of `O=C(O)CCc1nn2c(=O)c(/C=C/c3cccs3)nnc2s1`, the IC50 [12] is reported as 8.34 µg/mL (≈ 24.9 µM), the IC50 [13] is reported as 12.1 µg/mL (≈ 36.3 µM) and the IC50 [14] is reported as 11.7 µg/mL (≈ 34.8 µM).

With `CCn1cc(NC(=O)c2ccc3cnc(NC4CCCCC4N)nn23)c(C(N)=O)n1` (centres undefined) the IC50 [15] was 1 nM.

`CC(C)c1ccc(-c2nn3nnc4ccccc4c3nc2=O)cc1` gave a GI50 [16] of 410 nM.

Work on `COC(C(=O)Cc1cnc(NC2CCN(c3cncnn3)C2)s1)c1cccc(OC(F)(F)F)c1` (centres undefined) yielded an IC50 [17] of 43 nM.

With `CC(=O)OC[C@H]1O[C@@H](n2nc(Cc3ccccc3)c(=S)n(N)c2=S)[C@H](OC(C)=O)[C@@H](OC(C)=O)[C@H]1OC(C)=O` the inhibition at 100 µM [18] was 15% and the inhibition at 100 µM [19] was 38%.

`Cc1nn(C)c2nn3nnnc3nc12` showed an IC50 [20] of 400 nM, an IC50 [21] of 1120 nM and an IC50 [22] of 400 nM. For the same molecule, the IC50 [23] was 400 nM and the IC50 [24] was 1120 nM.

Molecule `CCn1c(=O)c(-c2cc(OC)cc(OC)c2)cc2nnc(Nc3ccncc3)nc21` has an IC50 [25] of 350 nM.

Molecule `Cc1ccc(C2=NN=C(/C(C#N)=N/Nc3sc4c(c3C#N)CCCC4)N(Nc3ccccc3)C2)cc1` has an IC50 [26] of 6800 nM, an IC50 [27] of 8300 nM and an IC50 [28] of 12400 nM.

Molecule `Cn1cc(NC(=O)c2ccc3cnc(NC4CCCCC4N)nn23)c(C(N)=O)n1` (centres undefined) has an IC50 [15] of 0.7 nM.

For `Oc1cccc(-n2nc(-c3cc(O)c(O)c(O)c3)c3nc(-c4ccc(Cl)cc4)nnc32)c1`, the IC50 [29] was 1900 nM, the IC50 [30] was 17300 nM and the IC50 at 72 h [31] was 1900 nM.

For `Cc1c(C#N)c2nnc(C(N)=O)c(N)n2c1-c1ccccc1`, the IC50 [32] was 3340 nM and the IC50 [24] was 2770 nM.

`O=C(O)c1ccccc1-c1nn2c(=O)c(/C=C/c3cccs3)nnc2s1` showed an IC50 [12] of 8.34 µg/mL (≈ 21.8 µM), an IC50 [13] of 8.34 µg/mL (≈ 21.8 µM) and an IC50 [14] of 8.34 µg/mL (≈ 21.8 µM).

`Oc1cc(-c2nn(-c3cc(O)c(O)c(O)c3)c3nnc(-c4ccc(Cl)cc4)nc23)cc(O)c1O` gave an IC50 [29] of 770 nM, an IC50 [30] of 11000 nM and an IC50 at 72 h [31] of 770 nM.
